Laboratory results as given in the supplement of paper PMC10883282.
± gives the standard deviation of the averaged measurements.

How the values were obtained:
Experiment in all cases: relative viability vs DMSO control (72 h) (fraction); higher = more viable cells
SK-ES-1 = test system: SK-ES-1
In short: (§1)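 Serially diluted compound, 2.5 µl from source plates spanning 10 mM to 0.0002 mM, was added 24 h after sarcoma cell lines were seeded in 384-well plates at densities targeting 80–90% confluence. Plates then sat 72 h at 37 °C, 5% CO2, with 0.1% DMSO vehicle and a 5 µM positive control. Relative viability came from ATPLite as percent growth, averaged over up to triplicate wells, and was rescaled with 1 as full and 0 as none.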

VA-ES-BJ = test system: VA-ES-BJ
In short: as §1

SW982 = test system: SW982
In short: as §1

MES-SA = test system: MES-SA
In short: as §1

A204 = test system: A204
In short: as §1

Cc1[nH]c(/C=C2\C(=O)Nc3ccccc32)c(C)c1CCC(=O)O [Orantinib]
relative viability
Details | A204 | MES-SA | SK-ES-1 | SW982 | VA-ES-BJ
0.00017 µM | 1.07 ± 0.04 | 1 ± 0.035 | 1.05 ± 0.031 | 1.06 ± 0.023 | 1.11 ± 0.018
0.00051 µM | 1.12 ± 0.014 | 0.989 ± 0.033 | 1.06 ± 0.03 | 1.11 ± 0.038 | 1.1 ± 0.015
0.00152 µM | 1.12 ± 0.073 | 0.975 ± 0.013 | 1.06 ± 0.042 | 1.1 ± 0.016 | 1.116 ± 0.011
0.00457 µM | 1.09 ± 0.036 | 0.968 ± 0.021 | 1.04 ± 0.044 | 1.1 ± 0.045 | 1.096 ± 0.0071
0.01372 µM | 1.14 ± 0.026 | 0.951 ± 0.042 | 1.04 ± 0.053 | 1.09 ± 0.046 | 1.06 ± 0.045
0.04115 µM | 1.086 ± 0.0063 | 0.948 ± 0.019 | 1.06 ± 0.089 | 1.1 ± 0.028 | 1.053 ± 0.005
0.1235 µM | 1.13 ± 0.068 | 0.948 ± 0.032 | 1.02 ± 0.039 | 1.08 ± 0.031 | 1.1 ± 0.036
0.3704 µM | 1.05 ± 0.043 | 0.953 ± 0.019 | 1.06 ± 0.065 | 1.044 ± 0.0096 | 1.07 ± 0.04
1.111 µM | 1.03 ± 0.052 | 0.941 ± 0.017 | 0.999 ± 0.067 | 1.01 ± 0.043 | 1.028 ± 0.0071
3.333 µM | 0.976 ± 0.019 | 0.941 ± 0.023 | 0.982 ± 0.058 | 0.935 ± 0.055 | 1.05 ± 0.016
10 µM | 0.881 ± 0.03 | 0.93 ± 0.016 | 0.998 ± 0.025 | 0.931 ± 0.025 | 0.998 ± 0.032

CC(=O)c1c(C)c2cnc(Nc3ccc(N4CCNCC4)cn3)nc2n(C2CCCC2)c1=O [Palbociclib]
relative viability
Details | A204 | MES-SA | SK-ES-1 | SW982 | VA-ES-BJ
0.00017 µM | 1.05 ± 0.021 | 0.965 ± 0.017 | 1 ± 0.094 | 1.03 ± 0.033 | 1.1 ± 0.042
0.00051 µM | 1.07 ± 0.047 | 0.977 ± 0.039 | 1.07 ± 0.057 | 1.08 ± 0.032 | 1.1 ± 0.034
0.00152 µM | 1.07 ± 0.081 | 0.975 ± 0.05 | 1.03 ± 0.041 | 1.06 ± 0.05 | 1.081 ± 0.0027
0.00457 µM | 1.08 ± 0.05 | 0.936 ± 0.011 | 1.02 ± 0.035 | 1.05 ± 0.024 | 1.08 ± 0.015
0.01372 µM | 1.03 ± 0.054 | 0.9398 ± 0.0046 | 0.9868 ± 0.0077 | 1.01 ± 0.041 | 0.99 ± 0.029
0.04115 µM | 0.987 ± 0.072 | 0.852 ± 0.013 | 0.865 ± 0.049 | 0.936 ± 0.022 | 0.9367 ± 0.0042
0.1235 µM | 0.808 ± 0.041 | 0.782 ± 0.028 | 0.674 ± 0.02 | 0.845 ± 0.021 | 0.807 ± 0.017
0.3704 µM | 0.777 ± 0.062 | 0.678 ± 0.018 | 0.512 ± 0.0068 | 0.737 ± 0.037 | 0.666 ± 0.037
1.111 µM | 0.649 ± 0.059 | 0.641 ± 0.014 | 0.467 ± 0.013 | 0.6424 ± 0.0046 | 0.584 ± 0.04
3.333 µM | 0.556 ± 0.011 | 0.521 ± 0.019 | 0.407 ± 0.036 | 0.487 ± 0.049 | 0.547 ± 0.021
10 µM | 0.39 ± 0.035 | 0.366 ± 0.0056 | 0.241 ± 0.012 | 0.222 ± 0.014 | 0.499 ± 0.03
